Measurements: US20260007625A1, “Compounds for the Treatment of Neuromuscular Disorders” (NMD PHARMA A/S, priority 2022, published 2026)

Experiments:
[1] = test system: isolated rat soleus muscles exposed to tubocurarine; experiment: Recovery of nerve-stimulated contractile force in isolated rat soleus nerve-muscle preparation after tubocurarine; conditions: tubocurarine 115 nM, after 40 mins of compound exposure
Description: The current disclosure relates to compounds that inhibit CIC-1 ion channels and increase muscle excitability and thereby improve muscle function in clinical conditions where muscle activation is failing. Such conditions result in loss of contractile function of skeletal muscle, weakness and excessive fatigue. In this series of experiments the compounds were tested for their ability to restore contractile function of isolated rat muscle when the neuromuscular transmission had been compromised akin to neuromuscular disorders.
Experimentally, soleus muscles from 4-5 week old rats were isolated with the motor nerve remaining attached. The nerve-muscle preparations were mounted in experimental setups that enabled electrical stimulation of the motor nerve. Stimulation of the motor nerve led to activation of the muscle fibres and ensuing force production that was recorded. The nerve-muscle preparations were also in these experiments incubated in the standard Krebs Ringer (see example 15) and the solution was heated to 30° C. and continuously equilibrated with a mixture of 95% O2 and 5% CO2, PH ˜7.4.
After mounting the nerve-muscle preparation in the experimental setup, the contractile function of the muscle was initially assessed under the control conditions. Sub-maximal concentration of tubocurarine (115 nM), an acetylcholine receptor antagonist, was then added to the experimental bath to impose partial inhibition of the ability of the motor nerve to activate the muscle fibres. The experimental condition mimics the failing neuromuscular transmission in a range of neuromuscular disorders. After addition of tubocurarine the contractile force declined over the next 90 minutes to 10-50% of the control force. The test compound was then added to obtain the required compound concentration in the bath and the contractile force recovered was measured. To quantify the ability of the compound to restore force the percentage of the initial force that was restored was determined after 40 mins of compound exposure and the point increase is reported in Table 2.

[2] = target: T1, CIC-1 ion channel (Rattus norvegicus, UniProt P35524); experiment: Electrophysiological measurement (Gm, three micro-electrodes) of compound inhibition of CIC-1 in rat soleus muscle fibres; type: cell-based; conditions: Gm in whole rat soleus muscle fibres, approx. 30° C., four increasing compound concentrations
T1 construct: from tissue; host or cells: intact soleus muscle of 12-14 week old Wistar rats
T1 sequence (P35524 1-994): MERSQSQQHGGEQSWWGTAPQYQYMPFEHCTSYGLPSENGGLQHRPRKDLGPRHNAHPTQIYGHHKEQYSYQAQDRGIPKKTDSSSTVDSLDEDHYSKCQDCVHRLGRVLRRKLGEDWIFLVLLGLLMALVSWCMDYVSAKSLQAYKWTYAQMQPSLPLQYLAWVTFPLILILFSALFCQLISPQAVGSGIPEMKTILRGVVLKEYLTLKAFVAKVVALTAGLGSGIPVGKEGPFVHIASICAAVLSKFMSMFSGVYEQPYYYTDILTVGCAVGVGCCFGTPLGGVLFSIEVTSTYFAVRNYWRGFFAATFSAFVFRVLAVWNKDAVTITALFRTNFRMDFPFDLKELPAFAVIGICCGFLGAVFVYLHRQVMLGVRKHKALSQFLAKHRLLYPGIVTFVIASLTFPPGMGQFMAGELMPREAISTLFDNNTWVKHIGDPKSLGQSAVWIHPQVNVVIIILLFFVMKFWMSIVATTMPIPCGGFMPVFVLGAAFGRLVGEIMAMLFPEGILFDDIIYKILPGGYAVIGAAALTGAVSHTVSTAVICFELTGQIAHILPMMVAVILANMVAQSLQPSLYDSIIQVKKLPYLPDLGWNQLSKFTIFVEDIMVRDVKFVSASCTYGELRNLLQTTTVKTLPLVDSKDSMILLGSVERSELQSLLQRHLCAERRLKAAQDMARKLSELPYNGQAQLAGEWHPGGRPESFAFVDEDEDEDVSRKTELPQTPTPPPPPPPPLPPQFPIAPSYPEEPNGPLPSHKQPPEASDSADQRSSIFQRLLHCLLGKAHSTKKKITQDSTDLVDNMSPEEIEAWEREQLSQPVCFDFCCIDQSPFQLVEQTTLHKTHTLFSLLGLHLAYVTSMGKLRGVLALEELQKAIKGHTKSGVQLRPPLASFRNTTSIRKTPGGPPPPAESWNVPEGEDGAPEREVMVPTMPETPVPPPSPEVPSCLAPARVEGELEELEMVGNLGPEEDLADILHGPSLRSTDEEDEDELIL
Description: Apparent CIC-1 affinity was reported by the concentration of compound at which 50% of the compound's full inhibition of CIC-1 was observed (EC50).
Experimentally, Gm was measured in individual fibres of whole rat soleus muscles using a three micro-electrodes technique described in this example and in full detail elsewhere (Riisager et al., Determination of cable parameters in skeletal muscle fibres during repetitive firing of action potentials. Journal of Physiology, 2014, 592, 4417-4429). Briefly, intact rat soleus muscles were dissected out from 12-14 week old Wistar rats and placed in an experimental chamber that was perfused with a standard Krebs Ringer solution containing 122 mM NaCl, 25 mM NaHCO3, 2.8 mM KCl, 1.2 mM KH2PO4, 1.2 mM MgSO4, 1.3 mM CaCl2), 5.0 mM D-glucose. During experiments, the solution was kept at approx. 30° C. and continuously equilibrated with a mixture of 95% O2 and 5% CO2, PH ˜7.4. The experimental chamber was placed in Nikon upright microscope that was used to visualize individual muscle fibres and the three electrodes (glass pipettes filled with 2 M potassium citrate). For Gm measurements, the electrodes were inserted into the same fibre with known inter-electrode distances of 0.35-0.5 mm (V1-V2, X1) and 1.1-1.5 mm (V1-V3, X3). The membrane potential of the impaled muscle fibre was recorded by all electrodes. Two of the electrodes were furthermore used to inject 50 ms current pulses of −30 nA. […] The steady state voltage deflection at each distance was divided by the magnitude of current injected (−30 nA) and the resulting transfer resistances were plotted against inter-electrode distance and the data was fitted to a mono-exponential function from which Gm could be calculated using linear cable theory.
To establish a dose response relationship, Gm was first determined in 10 muscle fibres in the absence of compound and then at four increasing compound concentrations with Gm determinations in 5-10 fibres at each concentration. The average Gm values at each concentration were plotted against compound concentration and the data was fitted to sigmoidal function to obtain an EC50 value.

[3] = test system: Lewis rats; experiment: In situ isometric hindlimb force in anaesthetised rats under partial neuromuscular block by Cisatracurium; type: in vivo, rat; conditions: sodium salt, 80 Hz stimulation, Cisatracurium infusion
Description: Isometric hindlimb force was measured in 12-week old female Lewis rats in the presence and absence of compound.
Rats were placed under anaesthesia with isoflurane (2-4%), intubated and subsequently connected to a micro ventilator (Microvent 1, Hallowell EMC, US). Two stimulation electrodes were inserted through the skin to stimulate the sciatic nerve. A small incision was made proximal to the ankle, to expose the Achilles tendon, which was tied by cotton string, and connected to a force transducer (Fort250, World Precision Instruments) with adjustable position (Vernier control). The Achilles tendon was then cut distal to the attached cotton string. […]
Muscle contractile properties were assessed by applying an electrical current (under supramaximal voltage conditions) to the nerve and recording the force generated by the muscle. The muscle was stretched until maximal force was obtained, when assessed by 2 Hz stimulation. Isometric force was measured every 30 seconds at 12 Hz (Twitch), 10 pulses, and at every 5 minutes at 80 Hz (Tetanic) for 1 second (80 pulses). […] The effect of test article was assessed on its ability to increase force generated from the stimulation pattern applied. The effect was assessed in the ability to increase force per se (tetanic, 80 Hz, stimulation), and the ratio between individual twitch peaks (12 Hz stimulation). […]

COc1c(C)cc(F)c(OC)c1C(=O)O [Compound A-1, 3-fluoro-2,6-dimethoxy-5-methylbenzoic acid]
Point increase, percentage of initial force that was restored ([1]; test compound 50 μM): 19%

COc1c(F)cc(Br)c(OC)c1C(=O)O [Compound A-2, 3-bromo-5-fluoro-2,6-dimethoxybenzoic acid]
Point increase, percentage of initial force that was restored ([1]; test compound 100 μM): 16%

COc1c(Cl)cc(Cl)c(OC)c1C(=O)O [Compound A-3, 3,5-Dichloro-2,6-dimethoxybenzoic acid]
EC50 [2]: 7.4 µM | Point increase, percentage of initial force that was restored ([1]; test compound 50 μM): 46%

Cc1cc(Cl)c(OC(F)(F)F)c(C(=O)O)c1C [Compound A-4, 3-chloro-5,6-dimethyl-2-(trifluoromethoxy)benzoic acid]
EC50 [2]: 1.7 µM | Point increase, percentage of initial force that was restored ([1]; test compound 10 μM): 23%

Cc1cc(Cl)c(OC2CC2)c(C(=O)O)c1C [Compound A-5, 3-chloro-2-cyclopropoxy-5,6-dimethylbenzoic acid]
EC50 [2]: 6.6 µM | Point increase, percentage of initial force that was restored ([1]; test compound 50 μM): 48%

COc1c(Cl)cc(C)c(Cl)c1C(=O)O [Compound A-6, 2,5-dichloro-6-methoxy-3-methylbenzoic acid]
EC50 [2]: 5.8 µM | Point increase, percentage of initial force that was restored ([1]; test compound 10 μM): 28%

COc1c(C)cc(Cl)c(OC)c1C(=O)O [Compound A-7, 3-chloro-2,6-dimethoxy-5-methylbenzoic acid]
EC50 [2]: 5.3 µM | Point increase, percentage of initial force that was restored ([1]; test compound 50 μM): 44% | increase in tetanic force ([3]; 2.5 mg/kg i.v. in PBS): 27%

CSc1c(Cl)cc(C)c(C)c1C(=O)O [Compound A-8, 3-chloro-5,6-dimethyl-2-(methylsulphanyl)benzoic acid]
EC50 [2]: 3.2 µM | Point increase, percentage of initial force that was restored ([1]; test compound 10 μM): 24%

Cc1cc(Cl)c(OC(F)F)c(C(=O)O)c1C [Compound A-9, 3-chloro-2-(difluoromethoxy)-5,6-dimethylbenzoic acid]
EC50 [2]: 4.3 µM | Point increase, percentage of initial force that was restored ([1]; test compound 50 μM): 50%

Cc1cc(Cl)c(OCF)c(C(=O)O)c1C [Compound A-10, 3-chloro-2-(fluoromethoxy)-5,6-dimethylbenzoic acid]
EC50 [2]: 4.1 µM | Point increase, percentage of initial force that was restored ([1]; test compound 10 μM): 21%

COc1c(F)cc(C)c(C)c1C(=O)O [Compound A-11, 3-fluoro-2-methoxy-5,6-dimethylbenzoic acid]
Point increase, percentage of initial force that was restored ([1]; test compound 50 μM): 25%

CCOc1c(Cl)cc(C)c(C)c1C(=O)O [Compound A-12, 3-chloro-2-ethoxy-5,6-dimethylbenzoic acid]
Point increase, percentage of initial force that was restored ([1]; test compound 50 μM): 39%

COc1c(Br)cc(C)c(C)c1C(=O)O [Compound A-13, 3-bromo-2-methoxy-5,6-dimethylbenzoic acid]
EC50 [2]: 4.4 µM | Point increase, percentage of initial force that was restored ([1]; test compound 10 μM): 29%

COc1c(Cl)cc(C)c(C)c1C(=O)O [Compound A-14, 3-chloro-2-methoxy-5,6-dimethylbenzoic acid]
EC50 [2]: 3.2 µM | Point increase, percentage of initial force that was restored ([1]; test compound 50 μM): 44% | increase in tetanic force ([3]; 10 mg/kg p.o. in PBS): 45%
